The assay concerns the target Nuclear receptor subfamily 1 group D member 1 (Homo sapiens) (UniProt P20393). As to the kind of experiment: modulators of Rev-erb alpha DNA binding, dose response, biochemical, FITC-DNA, fluorescence polarization (AID 1259321). (In fluorescence polarisation assays a small probe gives low polarisation when free and higher when bound to something large.)

Structures are written as SMILES. Activity calls are given as the source filed them.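 The calls were made as follows: active = half-maximal concentration for changing protein binding to DNA, from the fitted dose curve, below 10 micromolar; inactive = the rest.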

As usually defined, the IC50 is the concentration that inhibits the measured activity by half.

Sequence of Nuclear receptor subfamily 1 group D member 1 (Homo sapiens) (P20393 whole entry, looked up): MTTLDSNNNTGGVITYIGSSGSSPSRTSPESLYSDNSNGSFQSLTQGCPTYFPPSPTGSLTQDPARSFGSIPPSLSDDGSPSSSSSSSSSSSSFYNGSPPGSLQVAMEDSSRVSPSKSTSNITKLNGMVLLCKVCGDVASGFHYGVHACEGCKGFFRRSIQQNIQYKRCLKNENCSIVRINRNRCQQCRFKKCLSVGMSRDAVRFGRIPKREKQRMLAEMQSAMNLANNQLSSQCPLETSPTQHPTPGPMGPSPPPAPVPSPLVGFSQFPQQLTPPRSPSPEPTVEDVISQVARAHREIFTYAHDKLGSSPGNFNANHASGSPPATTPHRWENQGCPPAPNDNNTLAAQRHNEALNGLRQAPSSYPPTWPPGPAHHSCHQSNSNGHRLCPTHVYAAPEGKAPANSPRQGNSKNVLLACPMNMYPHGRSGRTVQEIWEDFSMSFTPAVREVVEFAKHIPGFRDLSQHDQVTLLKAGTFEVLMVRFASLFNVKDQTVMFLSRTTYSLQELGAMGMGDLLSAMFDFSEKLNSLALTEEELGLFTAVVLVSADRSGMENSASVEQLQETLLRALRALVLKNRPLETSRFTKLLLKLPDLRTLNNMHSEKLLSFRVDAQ

On to `O=c1ccc(-c2ccc(S(=O)(=O)N3CCN(c4cccc(Cl)c4)CC3)o2)n[nH]1`, for which the IC50 was 1.9 µM.
Then `COc1ccc(Cl)cc1CC1(C)C(=O)Nc2ccc(-c3ccccc3OC)cc21` (configuration not stated), with 3.44 µM; and `COc1cccc(-n2nnnc2SCC(=O)Nc2ccc3c(c2)OCCO3)c1`, with “inactive”; and `Cc1cc(C)c(NC(=O)CSc2nc3ncc(Br)cc3[nH]2)c(C)c1`, with > 40 µM (inactive).
Then `O=S(=O)(Cc1cc(NCc2ccccc2)nc(-c2ccncc2)n1)c1ccccc1`, with > 40 µM (inactive); and `CCOc1ccc(NC(=O)CSc2ncnc3c2sc2ccccc23)cc1`, with 6.32 µM; and `COc1cccc(CNC(=O)C[C@H]2CC[C@H]3[C@@H](COc4ccc(NC(=O)c5cccs5)cc4C(=O)N3C)O2)c1`, with 7.17 µM.
To `CCOc1ccc(NC(=O)CNC(=O)c2nn(-c3ccc(OC)c(OC)c3)c(=O)c3ccccc23)cc1` belongs 7.23 µM; to `CCC(C)OC(=O)c1cc(C)nc2c(Br)cc(Br)cc12` (configuration not stated), 7.65 µM; to `Cc1cccc2cc(C#N)c(SCC(=O)N3CC(=O)Nc4ccccc43)nc12`, “inactive”.
Consider `NS(=O)(=O)c1ccc(CCNC(=O)c2cc(-c3ccccn3)nc3ccc(Br)cc23)cc1`, for which the IC50 is 3.78 µM.
Then `COc1ccc(C2=NN(C(=O)CSc3ncccn3)C(c3cccc(OC)c3OC)C2)cc1` (configuration not stated), with 1.5 µM.
Regarding `CCC(C)(C)c1ccc(OCCCC[n+]2cccc(C)c2)c(C(C)(C)CC)c1`, the IC50 is 4.39 µM.
Then `Cc1ccc(NC(=O)CSc2nc3ccccc3nc2N2CCOCC2)c(C)c1`, with “inactive”; and `O=[N+]([O-])c1ccc(N2CCCCCC2)c2nonc12`, with > 40 µM (inactive).
Then `CCn1c2ccccc2c2cc(C3C(C#N)=C(C)NC(C)=C3C#N)ccc21`, with > 40 µM (inactive).
To `COc1ccc(NC(=O)c2sc3nc(N4CCCC4)c4c(c3c2N)CC(C)(C)OC4)c(OC)c1` belongs > 40 µM (inactive).
As for `COc1cc(C(=O)NCc2ccc(-c3nc4ccccc4s3)cc2)cc(OC)c1OC`, the IC50 was > 40 µM (inactive).
For the compound `CC(C)(C)C(=O)Nc1cc(S(=O)(=O)N2CCCCC2)ccc1N1CCCCC1`, the IC50 is > 40 µM (inactive).
Then `COc1ccc(/C=C2\SC(=O)N(CCC(=O)Nc3ccccc3)C2=O)cc1OC`, with “inactive”; and `COc1ccc(-c2oc3ccccc3c(=O)c2OC(=O)c2ccc(C)cc2)cc1`, with “inactive”.
To `CCCCN1C(=O)/C(=C/C=C2\SCCN2C)SC1=S` belongs 3.18 µM.
Turning to `CCN1C(=O)/C(=C\N2CCN(c3cccc(Cl)c3)CC2)SC1=S`, the IC50 was 8.83 µM.
With `COc1ccc(C(=O)c2ccc(OC)c(Br)c2)cc1Br`, the IC50 is > 40 µM (inactive).
To `COc1ccc(C(C)(C)C)cc1NC(=O)C1=CC=CN2CCS(=O)(=O)N=C12` belongs 5.35 µM; to `CCN1/C(=C\c2ccc3ccccc3[n+]2CC)Sc2cc(C)ccc21`, 2.67 µM.
To `O=C(Nc1ccc2c(c1)C(=O)NC2=O)c1cc(Cl)ccc1Cl` belongs “inactive”; to `COC(=O)c1ccc(Cn2ccc3ccc(-c4ccc5ccn(C(=O)c6ccccc6OC)c5c4)cc32)cc1`, 5.24 µM.
Then `Fc1ccc2nc(Nc3nc4c(F)cc(F)cc4s3)sc2c1`, with 7.05 µM; and `CC(C)CCN1C(=O)c2cccc3c(N)ccc(c23)C1=O`, with 2.83 µM; and `Cc1ccc2nc(/C(C#N)=C/c3ccc(-c4ccccc4C(=O)O)o3)[nH]c2c1`, with “inactive”.
With `CC(=O)Oc1ccc2oc(/C=C/N(C)C)c([N+](=O)[O-])c2c1`, the IC50 is 3.91 µM.

Source of the values: PubChem BioAssay AID1259321 (Sanford-Burnham Center for Chemical Genomics, 2017).
